# According to patent US20070105944A1, “Taxane metabolites” (priority 2002, published 2007):
# Several values for one entry are separate records, joined by “and”; a condition that tells them apart may be missing. Equal values may be shown once.
# Assays:
# tumors = conditions: Proc Am Assoc Cancer Res 1999 40 Abs 1905; cited from earlier work
# [1] = prior art; cited from earlier work
# [2] = Biotransformation of [14C]Compound I in bile duct cannulated rats after a single oral dose; assay type: in vivo, rat; conditions: single 25-mg/kg oral dose
# Source text: A single 25-mg/kg oral dose of [^14C] Compound I, as a solution in cremophore
# EL/ethanol/water (10:10:80, v/v/v), was separately administered to two male bile duct cannulated (BDC) rats. Within 24 hr after dosing, an average of 25.8% of the administered dose was excreted in bile, The corresponding value in urine was 3.9%. […] Thus, the oral absorption of [^14C] Compound I in rats was estimated to be at least 30%. Following the oral dose, the concentration of total radioactivity in plasma was measurable up to 24 hr and averaged 349 ng-equiv./mL at that time. The parent drug was a prominent radioactive component in plasma. At 24 hr after dosing, the concentration of Compound I in plasma was estimated to be 61 ng/mL. More than 20 hydrolytic and oxidative metabolites of [^14C] Compound I were detected in plasma.
# Bile duct and jugular vein cannulated (BDC/JVC) male Sprague-Dawley rats (Hla®: [SD] CVF®, 6-10 weeks old and weighing 300±50 g at dosing), were purchased from Hilltop Laboratories (Scottdale, Pa.). Upon receipt, each rat was marked on the tail and given an ear tag with a unique identification number.
# The dosing solution was prepared as follows: 7.96 mg of non-radiolabeled Compound I, 10.16 mg of [^13C] Compound I and 2.99 mg of [^14C] Compound I (77.7 μCi of radioactivity) were weighed into a vial. The compounds were then dissolved in 1.6 mL of a cremophore EL/ethanol solution (1:1, v/v) and diluted with 6.4 mL of sterile water. The total weight of the dosing solution was 7.53 g. The concentration of [^14C] Compound I in the dosing solution was […] (10.32 μCi/g) of solution. The nominal specific activity was 3.68 μCi/mg (8170 dpm/μg).
# Two rats, housed individually in Nalgene metabolic cages, were each given a single 25-mg/kg nominal dose of [^14C] Compound I orally by gavage. The actual amount of dosing solution administered to each animal was determined by weighing the loaded dosing syringe before dose administration and the emptied syringe after dose administration. Bile was collected from each animal between −1-0 (pre-dose), 0-6, 6-12, and 12-24 hr after dosing. Urine was collected between −24-0 (predose), 0-12, and 12-24 hr after dosing. Both the bile and urine samples were collected in tubes set on dry ice. At 0.5, 6, and 12 hr after dosing, blood samples (−1.2 mL) were collected from the jugular vein cannula into a heparinized syringe. At 24 hr after dosing, animals were sacrificed by CO2 asphyxiation. Terminal blood was collected by cardiac puncture into a heparinized vacutainer. Predose blood sample was collectd from a separate control animal. Blood was centrifuged at 2,500 rpm and 4° C. for 10 min to separate the plasma. Bile, urine, and plasma samples were weighed and stored at −20° C. prior to analysis.
# Concentrations of radioactivity in bile, urine, and plasma samples were determined by counting duplicate aliquots of each sample in 5 mL of Ready Value™ cocktail (Beckman Instrunents, Inc.) with a Beckman LS 3801, LS 5000TD, or LS6000TA Liquid Scintillation Counter for 10 min or until the 2-sigma error was less than or equal to 2%, whichever came first. Quench correction was performed using an external standard method. Most of the HPLC fractions used to prepare reconstructed HPLC chromatograms were counted for 5 minutes except for plasma samples, which were counted for 10 minutes.
# A portion (−20% of each sample) of the 0-6, 6-12, and 12-24 hr bile samples from two rats were pooled by interval to prepare three pooled samples. A portion (−20% of each sample) of the 0-6, 6-12, and 12-24 hr bile samples from two rats were pooled together to prepare a 0-24 hr sample. Duplicate 10-μL aliquots of each pooled sample were taken for radioactivity counting.
# A portion (−20% of each sample) of the 0-12 and 12-24 hr urine samples from two rats were pooled by interval to prepare two pooled samples. […]
# [3] = [14C]Compound I incubation with human liver microsomes (HLM), metabolite profile; assay type: in vitro ADME; conditions: 1 hr incubation, 37° C., 20 μM, NADPH
# Procedure: (§1) Each mL of the incubation mixture, in 100 mM of potassium phosphate buffer (pH 7.4), contained: 20 nmol of test article, 1 mg of microsomal protens, 3 μmol of NADPH and 10 μmol of magnesium chloride. The final concentrations were: test article, 20 μM; microsomal proteins, 1 mg/mL; NADPH, 3 mM; magnesium chloride, 10 mM; acetonitrile, 1% (v/v). 7-EC (100 μM) was used as the positive control for enzyme activity in the microsomes of all species. Two negative controls, one without NADPH and the other using heat-treated microsomes (5 min in boiling water), were carried out to determine the stability of the test article. […]
# (§2) Incubations were carried out aerobically at 37° C. with constant shaking. […] At the end of incubation, duplicate aliquots (10 μL) of the incubation mixture of the negative controls and the test article incubations were taken for liquid scintillation counting of radioactivity. […]
# (§3) The radiochemical purity of [^14C]Compound I and the metabolite profiles of the compound in the methanol extract of liver microsomal incubations were determined by HPLC radiochromatograpby using the following system:
# (§4) Fractions of the HPLC effluent were collected (0.25 min/fraction) into a 96-well deep luma plates and the collected fractions were dried using Savant Automatic SpeedVac system. Radioactivity was then determined with a Packard Top Count-NXT counter. […]
# [4] = [14C]Compound I incubation with rat liver microsomes (RLM), metabolite profile; assay type: in vitro ADME; conditions: 1 hr incubation, 37° C., 20 μM, NADPH
# Procedure: as §1, §2, §3, §4
# [5] = Rank order of metabolic stability in liver microsomes of the five species; assay type: in vitro ADME; conditions: 1 hr incubation
# Procedure: Each mL of the incubation mixture, in 100 mM of potassium phosphate buffer (pH 7.4), contained: 20 nmol of test article, 1 mg of microsomal protens, 3 μmol of NADPH and 10 μmol of magnesium chloride. The final concentrations were: test article, 20 μM; microsomal proteins, 1 mg/mL; NADPH, 3 mM; magnesium chloride, 10 mM; acetonitrile, 1% (v/v). 7-EC (100 μM) was used as the positive control for enzyme activity in the microsomes of all species. Two negative controls, one without NADPH and the other using heat-treated microsomes (5 min in boiling water), were carried out to determine the stability of the test article. The total volume of incubation mixture was 5 mL each for the test article incubations and 1 mL each for the positive and negative controls.
# as §2, with “shaking. Incubation mixtures were prepared at 0-4° C. (on ice).” for “shaking.”
# [^14C]Compound I was separately incubated with mouse, rat, dog, monkey and human liver microsoomes fortified with NADPH for 1 hr at 37° C. The incubation mixtures were extracted with methanol and the extacts were analyzed by HPLC radiochromatograpby and LC/RAM/(+)ESI-MS and MS/MS.
# [6] = [14C]Compound I incubation with dog liver microsomes (DLM), metabolite profile; assay type: in vitro ADME; conditions: 1 hr incubation, 37° C., 20 μM, NADPH
# Procedure: as §1, §2, §3, §4
# [7] = [14C]Compound I incubation with monkey liver microsomes (MKLM), metabolite profile; assay type: in vitro ADME; conditions: 1 hr incubation, 37° C., 20 μM, NADPH
# Procedure: as §1, §2, §3, §4
# [8] = [14C]Compound I incubation with mouse liver microsomes (MLM), metabolite profile; assay type: in vitro ADME; conditions: 1 hr incubation, 37° C., 20 μM, NADPH
# Procedure: as §1, §2, §3, §4
# [9] = oral; quote from WO98/53811; cited from earlier work
# human tumor xenografts = test: Oral paclitaxel against human tumor xenografts in athymic mice or rats; conditions: human tumor xenografts implanted in athymic mice or athymic rats
# sc M109 = assay type: in vivo; conditions: oral doses as high as 160 mg/kg/inj, murine tumor models (sc M109)
# Source text: […]; see Eiseman et al., Second NCI Workshop on Taxol and Taxus (September 1992); Suffness et.al. in TAXOL Science and Applications (CRC Press 1995). […]. Another report by J. Terwogt et. al. from The Lancet, Jul. […] […].
# [10] = up to 160 mg/kg/day, Suffness et al.; cited from earlier work
# [11] = BDC rats, within 24 hr, average of two rats, total radioactivity
smiles,measurement,setting,value
CC(=O)O[C@H]1C(=O)[C@@]2(C)[C@H]([C@H](OC(=O)c3ccccc3)[C@]34OC(=O)O[C@H]3[C@H](OC(=O)[C@H](O)[C@H](CC(C)C)NC(=O)OC(C)(C)C)C(C)=C1C4(C)C)[C@]1(OC(C)=O)CO[C@@H]1C[C@@H]2O [IDN-5109],activity against tumors in mice after oral administration,tumors,oral activity
"CC(=O)O[C@@]12CO[C@@H]1C[C@H](O)[C@@]1(C)C(=O)[C@H](O)C3=C(C)[C@@H](OC(=O)[C@H](O)[C@@H](NC(=O)OC(C)(C)C)c4ccccc4)C[C@@](O)([C@@H](OC(=O)c4ccccc4)[C@H]21)C3(C)C [TAXOTERE®, docetaxel]",oral activity in human or animal models,[1],no oral activity
"O=C(O)CNC(=O)c1ccccc1 [Metabolite M3, hippuric acid]",% of the dose in urine accounted for by metabolite(s),"[2]; rats, 0-24 hr pooled urine",~2.3%
same,% of total radioactivity in urine accounted for by metabolite(s),"[2]; rats, 0-24 hr pooled urine",~56% and ~60%
"COC(=O)O[C@@]12CO[C@@H]1C[C@H](O)[C@@]1(C)C(=O)[C@H](OC(C)=O)C3=C(C)[C@@H](OC(=O)[C@H](O)[C@@H](NC(=O)OC(C)(C)C)C(C)(C)C)C[C@@](O)([C@@H](OC(=O)c4ccccc4)C12)C3(C)C (some centres unmarked) [Compound I, 3′-tert-butyl-3′-N-tert-butyloxycarbonyl-4-deacetyl-3′-dephenyl-3′-N-debenzoyl-4-O-methoxycarbonyl-paclitaxel]",parent drug in the incubation mixture recovered unchanged,[3],21.4%
same,parent drug in the incubation mixture remained unchanged,[4],72.5%
same,rank order of metabolic stability in the liver microsomes of the five species,[5],rat>dog>mouse>human>monkey
same,parent drug in the incubation mixture remained unchanged,[6],59.7% and 58.7%
same,total recovery of the administered dose in bile and urine,"[2]; BDC rats, 24 hr, average",29.6%
same,administered dose excreted in bile,[2]; [11],25.8%
same,administered dose excreted in urine,[2]; [11],3.9%
same,concentration at 24 h,"[2]; male, Sprague-Dawley, rat, rats, at 24 hr after dosing, pooled plasma, read-out: concentration of Compound I in plasma (estimated)",61 ng/mL
same,"parent drug detected in bile, % of total radioactivity","[2]; rats, 0-24 h pooled bile",< 1%
same,concentration of total radioactivity in plasma,"[2]; rats, at 24 hr, average",349 ng-equiv./mL
same,oral absorption (estimated),"[2]; rats, from bile and urine recovery",at least 30%
same,parent drug detected in urine,"[2]; rats, pooled urine",≤ 1%
same,parent drug in the incubation mixture remained unchanged,[7],2.9%
same,parent drug in the incubation mixture remained unchanged,[8],31.5%
CC(=O)O[C@H]1C(=O)[C@@]2(C)[C@H]([C@H](OC(=O)c3ccccc3)[C@]3(O)C[C@H](OC(=O)[C@H](O)[C@@H](NC(=O)c4ccccc4)c4ccccc4)C(C)=C1C3(C)C)[C@]1(OC(C)=O)CO[C@@H]1C[C@@H]2O [paclitaxel],absorbed when administered orally,[9],less than 1%
same,attempts to demonstrate activity for orally administered drug,human tumor xenografts,unsuccessful
same,efficacy after oral dosing,sc M109,without signs of any efficacy
same,oral activity in human or animal models,[1],no oral activity
same,antitumor activity on oral administration,[10],no evidence of antitumor activity
